Measurements published in ChEMBL document CHEMBL1132603.

Assays:
[1] = target: D(2) dopamine receptor (Rattus norvegicus) (UniProt P61169); test: Affinity on C6 glioma cells transfected with Dopamine receptor D2L; assay type: cell-based
[2] = target: D(2) dopamine receptor (Rattus norvegicus) (UniProt P61169); test: Inhibition of [3H]spiperone binding to rat striatal membrane Dopamine receptor D2
[3] = target: D(1A) dopamine receptor (Rattus norvegicus) (UniProt P18901); test: Inhibition of [3H]SCH-23390 binding to rat striatal membrane Dopamine receptor D1
[4] = target: D(3) dopamine receptor (Rattus norvegicus) (UniProt P19020); conditions: C6
D(3) dopamine receptor (Rattus norvegicus), sequence (P19020 whole entry): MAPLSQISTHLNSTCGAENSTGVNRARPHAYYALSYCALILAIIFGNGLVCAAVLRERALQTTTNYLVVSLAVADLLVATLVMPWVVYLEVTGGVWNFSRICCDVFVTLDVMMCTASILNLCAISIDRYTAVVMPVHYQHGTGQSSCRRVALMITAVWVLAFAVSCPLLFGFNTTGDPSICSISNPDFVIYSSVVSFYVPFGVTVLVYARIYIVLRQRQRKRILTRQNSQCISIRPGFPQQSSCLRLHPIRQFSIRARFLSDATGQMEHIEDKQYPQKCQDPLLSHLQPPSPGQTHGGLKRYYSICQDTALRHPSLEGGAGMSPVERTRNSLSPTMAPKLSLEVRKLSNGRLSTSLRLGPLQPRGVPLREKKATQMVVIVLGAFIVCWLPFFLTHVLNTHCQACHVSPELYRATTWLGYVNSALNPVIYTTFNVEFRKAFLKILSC
Description: Affinity on C6 glioma cells transfected with Dopamine receptor D3

D(2) dopamine receptor (Rattus norvegicus), sequence (P61169 whole entry): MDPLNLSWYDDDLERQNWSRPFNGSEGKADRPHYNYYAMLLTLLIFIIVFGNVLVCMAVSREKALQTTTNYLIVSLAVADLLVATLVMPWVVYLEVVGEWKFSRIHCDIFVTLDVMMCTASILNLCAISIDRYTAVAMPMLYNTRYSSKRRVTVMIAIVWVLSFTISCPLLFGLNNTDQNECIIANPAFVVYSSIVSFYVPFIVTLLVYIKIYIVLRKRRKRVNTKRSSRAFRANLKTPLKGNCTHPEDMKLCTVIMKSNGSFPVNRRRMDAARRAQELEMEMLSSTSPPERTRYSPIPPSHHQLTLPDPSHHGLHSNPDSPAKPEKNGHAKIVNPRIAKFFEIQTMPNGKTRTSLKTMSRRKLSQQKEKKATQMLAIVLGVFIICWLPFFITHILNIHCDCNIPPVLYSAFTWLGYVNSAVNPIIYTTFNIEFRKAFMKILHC
D(1A) dopamine receptor (Rattus norvegicus), sequence (P18901 whole entry): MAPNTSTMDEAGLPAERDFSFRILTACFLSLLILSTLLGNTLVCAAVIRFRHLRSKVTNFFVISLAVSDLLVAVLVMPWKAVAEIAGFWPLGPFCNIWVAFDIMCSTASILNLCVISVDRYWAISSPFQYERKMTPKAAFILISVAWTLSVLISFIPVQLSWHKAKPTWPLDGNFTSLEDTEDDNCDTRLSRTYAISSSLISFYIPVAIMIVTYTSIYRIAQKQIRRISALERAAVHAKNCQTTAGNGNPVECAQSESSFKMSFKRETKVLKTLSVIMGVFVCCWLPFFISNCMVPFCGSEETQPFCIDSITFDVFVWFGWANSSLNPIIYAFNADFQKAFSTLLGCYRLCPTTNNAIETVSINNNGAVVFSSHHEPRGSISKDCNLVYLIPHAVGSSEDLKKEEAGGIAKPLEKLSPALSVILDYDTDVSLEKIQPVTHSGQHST

Row | Compound | K 0.5 [1] [nM] | K 0.5 [2] [nM] | K 0.5 [3] [µM] | K 0.5 [4] [nM]
1 | C=CCN1Cc2ccccc2[C@@H]2Cc3n[nH]cc3C[C@H]21 | 1880 | 100 | > 5 | 73.7
2 | O=C(CCCN1CCC2(CC1)C(=O)NCN2c1ccccc1)c1ccc(F)cc1 | 0.16 | 0.21 |  | 
3 | CCCN1Cc2ccccc2[C@@H]2Cc3nc(N)ncc3C[C@H]21 | > 5000 | 45 | > 5 | 20.2
4 | CN1CCc2cc(Cl)c(O)cc2[C@@H](c2ccccc2)C1 |  |  | 0.0004 | 
5 | Nc1ncc2c(n1)C[C@H]1c3ccccc3CN[C@@H]1C2 |  | 467 | > 5 | 324
6 | CN1Cc2ccccc2[C@@H]2Cc3n[nH]cc3C[C@H]21 | 3090 | 189 | > 5 | 187
7 | Oc1cc2c(cc1O)[C@H]1c3ccccc3CN[C@@H]1CC2 | 1490 |  |  | 170
8 | CCCN1Cc2ccccc2[C@@H]2Cc3n[nH]cc3C[C@H]21 | 4300 | 209 | > 5 | 162
9 | CCCN1CCC[C@@H]2Cc3nc(N)ncc3C[C@H]21 | 710 | 4.78 | > 5 | 
10 | Oc1ccc2c(c1O)Cc1cccc3c1[C@H]2CNC3 | 174 |  |  | 
11 | c1ccc2c(c1)CN[C@@H]1Cc3c[nH]nc3C[C@@H]21 | > 5000 | 641 | > 5 | 955
12 | C=CCN1Cc2ccccc2[C@@H]2Cc3nc(N)ncc3C[C@H]21 | > 5000 | 102 | > 5 | 15.8
